The structures appear in SMILES notation. “Also recorded” adds a separate entry of the source.

A short description of data set [1]: Kinetics of hydrolysis and syn/anti isomerization in aqueous buffer. As to conditions: for pKa: aqueous buffer. The data set is classed as physicochemical. The text has this: Iminoquinone Fate in Aqueous Buffers. […] Outlined in Scheme 4 below, are the pertinent equilibria and hydrolytic reactions of 2a in aqueous buffer. Above pH 7, the predominate reaction is equilibrium formation of a syn/anti mixture of 2a by general acid/base catalyzed processes. Much below pH 7, the predominate reaction is acid-catalyzed hydrolysis of 2a to the corresponding quinone 1a.
The studies which led to the mechanism outlined in Scheme 4 will now be described. Both hydrolysis and the equilibrium isomerization of pure syn 2a or pure anti 2a are associated with an absorbance change at 320 nm. Plots of absorbance vs time obeyed a first-order rate law over the entire pH range studied. The kobsd values were dependent on the concentration of the buffers employed to hold pH over the range of pH=3 to 9. Lyate-dependent values of kobsd (klyate) were obtained by measuring kobsd values over a 10-fold range of buffer concentration at constant pH and then extrapolating to the klyate value at zero buffer concentration.
The rate law for the reaction of pure syn 2a, based on the mechanism shown in Scheme 4 below, is provided in Equation 1: [formula] wherein: k1, k-1, k2, k3, Ka4 and Ka5 are constants found in Scheme 4 and aH is the proton activity determined with a pH electrode. The first term of equation 1 pertains to the hydrolysis of 2aH^2+ under the conditions aH <Ka5, the second term pertains to hydrolysis of 2aH and third term pertains to the syn/anti equilibration. […] Consistent with the postulated mechanism, the kinetically-obtained value of pKa4 approximates the value obtained by spectrophotometric titration (2.6±0.3).
(§1) Kinetic Studies of Hydrolysis. The hydrolytic studies of 2a and the reoxidation studies of 19 and 20 were carried out in aerobic aqueous buffer at 30.0°±0.2° C. A dimethyl sulfoxide stock of the compound to be studied was prepared fresh and 50 μl of this stock was added to 2.95 mL of buffer. In the cases of 19 and 20, the dimethyl sulfoxide stock was kept under a blanket of argon. The absorbance vs time data were obtained on a Perkin-Elmer 559 or a Lambda-3 UV-vis spectrophotometer and fit to a first-order rate law.

A short description of data set [2]: Two-electron reduction potentials by cyclic voltammetry and Nernst fit.
Procedure: Quinone 1a and iminoquinone 2a two-electron reduction potentials were determined in anaerobic aqueous buffers (μ=1, NaClO4) at 25° C. over the pH range -1 to 10 employing conventional cyclic voltammetry. The working electrode was a graphite mull, the auxillary electrode was platinum, and the reference couple was Ag/AgCl.
The pKa values, with error limits, were determined. spectrophotometrically.
The determination of Em values was carried out with a BAS 27 voltammograph. Measurements were carried out in μ=1.0 (NaClO4) aqueous buffer at 25°-26° C. under an atmosphere of argon with a BAS Ag/AgCl gel electrode as reference. […] The midpoint potential Em was determined from the average of the anodic (Ep,a) and cathodic (Ep,c) potentials.
For each of the redox couples, 1a/20 and 2a/19, >20 Em determinations were made over the pH range studied. For each Em value of a couple, and Eo value was calculated from the Nernst equation substituted with the acid dissociation constants in Table I and the proton activity determined with a pH meter. The average of all Eo determinations was then substituted into the Nernst equation, with which the solid curve for the couple was generated.
Data set [3] is described as follows: pKa by spectrophotometric titration. The conditions noted are these: water, 1.0 m kcl. It counts as physicochemical. As to the method: pKa constants were determined by spectrophotometric titration in μ=1.0 (KCl) aerobic aqueous solvent at 30°±0.2° C. with a Cary 15 outfitted with a titration cell. Acid dissociations from hydroquinones in strong base were measured under an argon atmosphere with Thunberg cuvettes. Details of the methodoloqy employed are found in a previous publication.

Data set [4] relates to fresh human ovarian tumors. The experiment in a line: Antitumor activity in fresh human ovarian tumors. The data set is classed as cell-based.
Data set [5] deals with cloned human ovarian cancer cell lines. Kind of data set: Antitumor activity in cloned human ovarian cancer cell lines. The data set is classed as cell-based.
A further data set concerns fresh human colon tumors. The experiment in a line: Antitumor activity in fresh human colon tumors. The data set is classed as cell-based.
The test system of data set [6] is cloned human colon cancer cell lines. The experiment in a line: Antitumor activity in cloned human colon cancer cell lines. It counts as cell-based.
Data set [7] in a line: syn/anti isomerization equilibrium (product study, thermodynamic cycles, NMR). The data set is classed as physicochemical. The conditions noted are these: for K for syn/anti isomerization: aqueous buffer. The protocol: Below pH 7, the preparative reaction of pure syn 2a afforded a mixture of isomers; [syn 2a]/[anti 2a]=0.7 by ^1 H NMR. [drawing 5]
The K value (~1) for syn/anti isomerization of 2a in aqueous buffer was assessed from […] thermodynamic cycles and from a product study. The results of the product study indicate K=0.7. The two thermodynamic cycles shown in Scheme 4 indicate K=1 to 2. These thermodynamic cycles were constructed by considering that protonation of syn/anti 2a provides the same cationic species 2aH^+ and that acid dissociation from syn/anti 2a probably provides the same anionic species 2aH^-.
The thermoneutral syn/anti isomerization in aqueous buffer requires that the imino proton of anti 2a hydrogen bond to the nitrogen of the enolized acetamido group.
Product Isolation of syn 2a Reaction at pH 8. To a solution of 15 mg (0.058 mmol) of syn 2a in 1 mL of dimethyl sulfoxide was added 4 mL of pH 8 phosphate buffer. The reaction mixture was stirred at room temperature for 48 hours and then diluted with 10 mL of water and extracted 3× with 20 mL portions of chloroform. Concentration of the dried extracts (sodium sulfate) afforded 12 mg (80%) of a mixture of isomers: [syn/anti]=0.7 by ^1 H NMR.

Data set [8] is described as follows: Aerobic oxidation (oxygen reactivity) of reduced species in aqueous buffer. The data set is classed as physicochemical. The protocol:
The oxygen reactivity of 19 and 20 was studied in aerobic buffers (μ=1.0, KCl) at 30° C. Both of these species are converted to the corresponding oxidized analogues, 2a and 1a, by first-order processes. Isolation studies and UV-visible spectra of completed reactions confirmed the formation of both analogues. As expected from the relative reduction potentials, the oxidation of 19 is slow enough to be studied up to pH=11 whereas the oxidation of 20 occurs at stopped-flow rates much above neutrality.
The profile for the oxidation of 19 is consistent with oxidation of both the neutral species (19) and the monoprotonated species (19H^+), see Scheme 5, below. [drawing 11] The rate law for the mechanism in Scheme 5 is found in Equation 5. […] The solid curve of Plot B in FIG. 3 was computer generated with equation 5 using the values of the constants shown in Scheme 5. Consistent with the proposed mechanism, the kinetically-determined value of Ka is nearly the same as the value determined spectrophotometrically (9.44, entry 11 of Table I). The greater oxygen reactivity of 19, compared to 19H^+, is consistent with the decreasing Em values (i.e., decreasing stability of the reduced species) observed in the Nernst Fit (Plot B, FIG. 2) at pH values>6.
as §1

The conditions of data set [9]: comparison or calibration value; cited from earlier work.
[10] abbreviates: N(4)-protonated species, 30° C., μ = 1.0 (KCl).
Setting [11] is: amide proton, 30° C., μ = 1.0 (KCl).
Setting [12] is: buffer-catalyzed syn/anti isomerization.

As for `CC(=O)NC1=C(C)C(=O)c2c(nc3n2CCC3OC(C)=O)C1=N` (racemic) [2b, syn/anti 6-Acetamido-5-imino-7-methyl-2,3-dihydro-1H-pyrrolo[1,2-a]benzimidazol-8-one-3-Acetate], in data set [1], the “hydrolytic stability below pH 6” value is recorded as “extremely slow”.
With `CC(=O)NC1=C(C)C(=O)c2c(nc3n2CCC3)C1=O` [1a, 6-Acetamido-7-methyl-2,3-dihydro-1H-pyrrolo [1,2-a]benzimidazole-5,8-dione], the “Eo (reduction potential at pH=0)” value in data set [2] (couple 1a/20, Nernst fit) is on record as 612 mV (NHE). Further, the figures for the pKa in [3] (setting [10]) and in [3] (setting [11]) were 1.54 ± 0.06 and 11.3 ± 0.13, respectively. Moreover, the “hydrolytic stability, entire pH range studied” value in [1] (aqueous solution, pH range -1 to 10) is “hydrolytically stable”.
With `CC(=O)OC1CCn2c1nc1c2C(=O)C(C)=C(N2CC2)C1=O` (centres unmarked) [1c, 6-(N-aziridinyl)-7-methyl-2,3-dihydro-1H-pyrrolo [1,2-a]benzimidazole 5,8-dione-3-Acetate], the antitumor activity result (in data set [4]; in data set [5]; in the data set on fresh human colon tumors; in data set [6]) was “potent antitumor agents” each time.
With `CC1=C(N2CC2)C(=O)c2nc3n(c2C1=O)CCC3OC(N)=O` (centres unmarked) [1d, 6-N-Aziridinyl-7-methyl-2,3-dihydro-1H-pyrrolo [1,2-a]benzimidazole-5,8-dione-3-Carbamate], the antitumor activity entry (in data set [4]; in data set [5]; in the data set on fresh human colon tumors; in data set [6]) was “potent antitumor agents” each time.
For `CC(=O)NC1=C(C)C(=O)c2c(nc3n2CCC3)C1=N` [2a, syn/anti 6-Acetamido-5-imino-7-methyl-2,3-dihydro-1H-pyrrolo[1,2-a]benzimidazol-8-one], in data set [2] (couple 2a/19, Nernst fit), the “Eo (reduction potential at pH=0)” value is reported as 1.11 V (NHE). In addition, the “E values of syn and anti isomers” value in [2] (cyclic voltammetry, syn versus anti) is listed as “identical E values for both isomers”. Moreover, the “reduction potential versus quinone” value in data set [2] (iminoquinone compared with quinone analogue) is listed as “much higher reduction potentials”. Further, the pKa is less than 0 in data set [3] (setting [10]); 11.24 ± 0.01 in data set [3] (setting [11]); 2.6 ± 0.3 in data set [3] (protonated imino group (2aH^+), spectrophotometric, 30° C., μ = 1.0 (KCl)); approximately 2.5 in data set [1] (acid dissociation of 2aH^+ (protonated imine), pH profile FIG. 1, read-out: pKa); less than 0 in data set [1] (acid dissociation of diprotonated 2a, pH profile FIG. 1, read-out: pKa); 3.4 in [1] (kinetically obtained, fit of equation 1, 30° C., read-out: pKa4). For the same molecule, the “K for syn/anti isomerization” value is ~ 1 in [7] (overall) and 0.7 in data set [7] (product study). The “hydrolytic stability much below pH 6 / in acid” value in data set [1] (acid, much below pH 6) is “rapidly hydrolyses; also recorded: rapidly hydrolyzed”. Further, the “hydrolytic stability below pH 6” value in data set [1] was “extremely slow”. Also, in data set [1] (setting [12]), the “k(acetate)” value was found to be 0.0045 M⁻¹ s⁻¹. Further, the “k(dibasic phosphate)” value in [1] (setting [12]) worked out at 0.000171 M⁻¹ s⁻¹. In data set [1] (setting [12]), the “k(monobasic phosphate)” value was determined as 0.000421 M⁻¹ s⁻¹. Besides, the “kga for acetic acid” value in [1] (general acid catalyzed hydrolysis, pH 3.5 to 6) is 0.003 M⁻¹ s⁻¹. The molecule also yielded a k3/Ka5 in data set [1] (hydrolysis of diprotonated 2a, fit of equation 1, 30° C.) of 0.045 M⁻¹ s⁻¹. Besides, the “k2 (rate of water addition to 2aH^+)” value in data set [1] (hydrolysis of monoprotonated 2a, 30° C.) turned out to be 0.048 s⁻¹. In addition, the “hydrolytic stability at pH values ≥7” value in [1] (pH ≥7) is “hydrolytically stable”. Moreover, the “hydrolysis rate at pH 7.0” value in data set [1] (pH=7.0, worked out from pKa and k2) is listed as 1.0×10^-6 s^-1. For the same molecule, the “k1 + k-1” value in data set [1] (syn/anti equilibration, lyate term, above pH 7, 30° C.) was 1.03e-05 s⁻¹.
Consider `CC(=O)Nc1c(C)c(O)c2c(nc3n2CCC3)c1N` [compound 19, 6-Acetamido-5-amino-8-hydroxy-7-methyl-2,3-dihydro-1H-pyrrolo[1,2-a]benzimidazole], for which, in [2] (acid solution), the “stability of reduced species in acid” value is recorded as “acid-stable”. Also, the “reoxidation rate relative to 20” value in [8] (physiological pH) is “two orders of magnitude slower”. Further, the “fold slower oxidation than 20” value in [8] (physiological pH (7.4)) was “about 100 ×”. The pKa in data set [3] (setting [10]) was 3.67 ± 0.16; in [3] (dissociation of hydroxyl, amide and amine protons: 19^2- to 19^3-, approximated), more than 15; in data set [3] (dissociation of hydroxyl, amide and amine protons: 19^- to 19^2-, approximated), more than 15; in data set [3] (dissociation of hydroxyl, amide and amine protons: 19 to 19^-, approximated), more than 15; in data set [3] (protonated 5-amino group (19H^+), 30° C., μ = 1.0 (KCl)), 9.44.
In the case of `CC(=O)Nc1c(C)c(O)c2c(nc3n2CCC3)c1O` [compound 20], the “oxidation rate above pH 7.5” value in data set [8] (above pH 7.5) is given as “too fast to measure”. Moreover, the “oxidation rate of 20^-” value in data set [8] (assuming rate-determining oxidation of 20^-) came out at 1566 s⁻¹. Moreover, the pKa was 11.1 in data set [3] (5-OH of hydroquinone, 30° C., μ = 1.0 (KCl)); more than 14 in [3] (8-OH of hydroquinone (20^- to 20^2-), 30° C., μ = 1.0 (KCl), approximated); 6.02 ± 0.2 in [3] (setting [10]); more than 14 in data set [3] (setting [11]).
As to `N#CC1=C(C#N)C(=O)C(Cl)=C(Cl)C1=O` [dichlorodicyanoquinone (DDQ), dichlorodicyanoquinone], the Eo in [9] is recorded as 946 mV, NHE.
As for `CC(=O)NC1=C(C)C(=O)c2c(nc3n2CCC3)C1=N` [syn 2a, 6-Acetamido-5-imino-7-methyl-2,3-dihydro-1H-pyrrolo[1,2-a]benzimidazol-8-one], the “K for syn/anti equilibration” value in data set [7] (dimethyl sulfoxide-d6) worked out at 15. Besides, the “[syn]/[anti] ratio” value in [7] (preparative reaction of pure syn 2a, ^1 H NMR, pH 8 phosphate buffer, 48 hours) is reported as 0.7. In addition, in [1] (pH 0 to pH 6), the “completed hydrolysis, product by UV-visible spectra” value is reported as “quantitative formation of 1a”.
